According to patent publication US20240093151A1, “DEVICE AND METHOD FOR OBTAINING IMMUNO-STIMULATORY ANTIGEN-PRESENTING CELLS” (Transimmune AG, priority 2015, published 2024):
Ends that are not written are not given here.

Tested on: platelets
Experiment: Activation of platelets by plasma protein fragment
Format: cell-based

For HHLGGAKQAGDV, the “ability to activate platelets” value was “able to activate platelets”.
